The numbers were not newly measured in patent publication US11384033B2, “Compositions with improved urease-inhibiting effect comprising (thio)phosphoric acid triamide and further compounds such as amines and colorants” (BASF SE, priority 2014, dated 2022), which cites them from elsewhere.

The conditions of the data set: de-ionized water at 25° C. and atmospheric pressure.

Structures are written as SMILES.

`CC(O)CO` (stereo not shown) [propane-1,2-diol]: the pKa value is reported as 14.9.
